From US9944666B2, “Compounds that are S1P modulating agents and/or ATX modulating agents” (BIOGEN MA INC., priority 2012, dated 2018)

What was measured:
[1] = biological target: T1, human S1P4 (Homo sapiens, UniProt O95977); test: S1P receptor calcium mobilization assay, antagonist format; type: cell-based; conditions: recombinant CHEM cells expressing human S1P4; calcium flux, FLIPR; stimulated with EC80 of reference agonist
T1 construct: host or cells: recombinant CHEM cells
T1 sequence (O95977 1-384): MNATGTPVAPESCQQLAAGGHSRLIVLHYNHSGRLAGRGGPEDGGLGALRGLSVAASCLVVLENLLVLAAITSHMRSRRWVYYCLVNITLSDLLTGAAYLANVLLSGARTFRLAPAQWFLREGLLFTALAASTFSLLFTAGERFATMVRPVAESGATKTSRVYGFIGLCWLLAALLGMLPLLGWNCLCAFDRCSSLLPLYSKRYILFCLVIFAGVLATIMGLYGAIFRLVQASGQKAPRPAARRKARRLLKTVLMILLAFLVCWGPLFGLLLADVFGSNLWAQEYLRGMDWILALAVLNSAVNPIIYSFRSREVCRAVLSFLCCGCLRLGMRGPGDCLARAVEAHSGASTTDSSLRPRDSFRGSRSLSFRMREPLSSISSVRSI
Experimental: (§1) Compounds that are not specific for a particular S1P receptor can cause undesirable side effects. Accordingly, compounds are tested to identify those that are specific. Accordingly, the test compounds are tested in a calcium mobilization assay/S1P receptor activity assay. The procedure is essentially as described in Davis et al. (2005) Journal of Biological Chemistry, vol. 280, pp. 9833-9841, which is incorporated by reference in its entirety with the following modifications. Calcium mobilization assays are performed in recombinant CHEM cells expressing human S1P1, S1P2, S1P3, S1P4, or S1P5 purchased from Millipore (Billerica, Mass.). To detect free intracellular calcium, S1P1, S1P2, S1P3, S1P4, or S1P5 cells are loaded with FLIPR Calcium 4 dye from Molecular Devices (Sunnyvale, Calif.). Cells are imaged for calcium mobilization using a FLIPR^TERA equipped with a 96-well dispense head.
Agonist percentage activation determinations were obtained by assaying sample compounds and referencing the Emax control for each receptor profiled. Antagonist percentage inhibition determinations were obtained by assaying sample compounds and referencing the control EC80 wells for each receptor profiled.
Sample compounds were plated in an eight-point, four-fold dilution series in duplicate with a top concentration of 10 μM. The concentrations described here reflect the final concentration of the compounds during the antagonist assay. During the agonist assay the compound concentrations were 1.25 fold higher to allow for the final desired concentration to be achieved with further dilution by EC80 of reference agonists during the antagonist assay.
Reference agonists were handled as mentioned above serving as assay control. The reference agonists were handled as described above for Emax.
Assay was read for 180 seconds using the FLIPR^TETRA (This assay run added sample compounds and reference agonist to respective wells). At the completion of the first “Single Addition” assay run, assay plate was removed from the FLIPR^TETRA and placed at 25° C. for seven (7) minutes.
Using the EC80 values determined during the agonist assay, stimulated all pre-incubated sample compound and reference antagonist (if applicable) wells with EC80 of reference agonist. Read for 180 seconds using the FLIPR^TETRA (This assay added reference agonist to respective wells-then fluorescence measurements were collected to calculate percentage inhibition values).

[2] = biological target: T1, human S1P4; test: S1P receptor calcium mobilization assay, agonist format; type: cell-based; conditions: recombinant CHEM cells expressing human S1P4, calcium flux, FLIPR
Experimental: as §1
Agonist percentage activation determinations were obtained by assaying sample compounds and referencing the Emax control for each receptor profiled. Antagonist percentage inhibition determinations were obtained by assaying sample compounds and referencing the control EC80 wells for each receptor profiled. […]
Assay was read for 180 seconds using the FLIPR^TETRA (This assay run added sample compounds and reference agonist to respective wells). […]

[3] = biological target: T2, Human ATX protein (Homo sapiens, UniProt Q13822); test: ATX biochemical FRET assay with FS-3 substrate; conditions: FS-3 2 μM, ATX 1.0 μg/mL, room temperature 2 hours, fluorescence 485/538 nm
T2 construct: made in house
Procedure, shortened: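 Purified human ATX (1.0 μg/mL final) preincubated with compound 30 min at room temperature in Tris pH 7.4 buffer with NaCl, KCl, CaCl2, MgCl2 and 1 mg/mL fatty acid-free BSA. FS-3 added to 2 μM final; 2 h at room temperature in the dark, fluorescence at ex 485/em 538 nm.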

| IC50 [1] | SMILES | IC50 [3] | further results |
| --- | --- | --- | --- |
| ≤ 250 nM | CC(C)[C@H]1CC[C@H](Oc2ccc3cc(CNC45CCC(C(=O)O)(CC4)CC5)ccc3c2)CC1 [Example 4, 4-(((6-((trans-4-isopropylcyclohexyl)oxy)naphthalen-2-yl)methyl)amino)bicyclo[2.2.2]octane-1-carboxylic acid] |  |  |
| ≤ 250 nM | O=C(O)C12CCC(NCc3ccc4cc(OC5CCC6(CCCCC6)CC5)ccc4c3)(CC1)CC2 [Example 11, 4-(((6-(spiro[5.5]undecan-3-yloxy)naphthalen-2-yl)methyl)amino)bicyclo[2.2.2]octane-1-carboxylic acid] |  |  |
| ≤ 500 nM | CC(C)(C)[C@H]1CC[C@H](Oc2ccc3cc(CN4CCN(c5ncccn5)CC4)ccc3c2)CC1 [Example 44, 2-(4-((6-((trans-4-(tert-butyl)cyclohexyl)oxy)naphthalen-2-yl)methyl)piperazin-1-yl)pyrimidine] |  |  |
| ≤ 500 nM | CC(C)(C)[C@H]1CC[C@H](Oc2ccc3cc(CN4CCN(c5ccncc5)CC4)ccc3c2)CC1 [Example 46, 1-((6-((trans-4-(tert-butyl)cyclohexyl)oxy)naphthalen-2-yl)methyl)-4-(pyridin-4-yl)piperazine] |  |  |
| ≤ 100 nM | CC(C)(C)[C@H]1CC[C@H](Oc2ccc3cc(CN4CC(C5CCCC(C(=O)O)C5)C4)ccc3c2)CC1 (stereo partly drawn) [Example 58, 3-(1-((6-((trans-4-(tert-butyl)cyclohexyl)oxy)naphthalen-2-yl)methyl)azetidin-3-yl)cyclohexanecarboxylic acid] |  |  |
|  | CC1(C)CCC(Oc2ccc3cc(CN4CC(C5CCCC(C(=O)O)C5)C4)ccc3c2)CC1 (stereo not shown) [Example 62, 3-(1-((6-((4,4-dimethylcyclohexyl)oxy)naphthalen-2-yl)methyl)azetidin-3-yl)cyclohexanecarboxylic acid] |  | IC50 [2]: ≤ 500 nM |
| ≤ 500 nM | CC(C)(C)[C@H]1CC[C@H](Oc2ccc3cc(CN4CC5(COC5)C4)ccc3c2)CC1 [Example 67, 6-((6-((trans-4-(tert-butyl)cyclohexyl)oxy)naphthalen-2-yl)methyl)-2-oxa-6-azaspiro[3.3]heptane] |  |  |
| ≤ 250 nM | CC(C)(C)[C@H]1CC[C@H](Oc2ccc3cc(CNC45CCC(C(=O)O)(CC4)C(O)C5)ccc3c2)CC1 (stereo partly drawn) [Example 80, 4-((6-(trans-4-tert-Butylcyclohexyloxy)naphthalen-2-yl)methylamino)-2-hydroxybicyclo[2.2.2]octane-1-carboxylic acid] |  |  |
|  | C[C@H]1CC[C@@H](Nc2ncc3cc(CN4C5CCCC4CC(C(=O)O)C5)ccc3c2Cl)CC1 (stereo partly drawn) [Example 271, 9-((4-chloro-3-((cis-4-methylcyclohexyl)amino)isoquinolin-7-yl)methyl)-9-azabicyclo[3.3.1]nonane-3-carboxylic acid] | ≤ 500 nM |  |
|  | CC(C)(C)[C@H]1CC[C@@H](Nc2ncc3cc(C(=O)N4C5CCC4CC(C(=O)O)C5)ccc3c2Cl)CC1 (stereo partly drawn) [Example 272, 8-(3-((cis-4-(tert-butyl)cyclohexyl)amino)-4-chloroisoquinoline-7-carbonyl)-8-azabicyclo[3.2.1]octane-3-carboxylic acid] | ≤ 250 nM |  |
|  | O=C(O)C1CC2CCCC(C1)N2Cc1cc2ccc(O[C@H]3CC[C@@H](C(F)(F)F)CC3)c(Br)c2cn1 (stereo partly drawn) [Example 274, 9-((8-bromo-7-((cis-4-(trifluoromethyl)cyclohexyl)oxy)isoquinolin-3-yl)methyl)-9-azabicyclo[3.3.1]nonane-3-carboxylic acid] | ≤ 250 nM |  |
|  | C[C@H]1CC[C@@H](Oc2ccc3cc(CN4C5CCCC4CC(C(=O)O)C5)ncc3c2Br)CC1 (stereo partly drawn) [Example 279, 9-((8-bromo-7-((cis-4-methylcyclohexyl)oxy)isoquinolin-3-yl)methyl)-9-azabicyclo[3.3.1]nonane-3-carboxylic acid] | ≤ 500 nM |  |
|  | CC[C@H]1CC[C@@H](Oc2ccc3nc(NC4C5CCC4CC(C(=O)O)C5)ccc3c2C(F)(F)F)CC1 (stereo partly drawn) [Example 280, 8-((6-((cis-4-ethylcyclohexyl)oxy)-5-(trifluoromethyl)quinolin-2-yl)amino)bicyclo[3.2.1]octane-3-carboxylic acid] | ≤ 100 nM |  |
|  | CC[C@H]1CC[C@@H](Oc2ccc3nc(NC4C5CCCC4CC(C(=O)O)C5)ccc3c2Cl)CC1 (stereo partly drawn) [Example 281, 9-((5-chloro-6-((cis-4-ethylcyclohexyl)oxy)quinolin-2-yl)amino)bicyclo[3.3.1]nonane-3-carboxylic acid] | ≤ 100 nM |  |
|  | O=C(O)C1CC2CC(C(=O)O)CC(C1)N2Cc1ccc2c(C(F)(F)F)c(O[C@H]3CC[C@@H](C(F)(F)F)CC3)ccc2c1 (stereo partly drawn) [Example 282, (1R,3S,5S)-9-((5-(trifluoromethyl)-6-((cis-4-(trifluoromethyl)cyclohexyl)oxy)naphthalen-2-yl)methyl)-9-azabicyclo[3.3.1]nonane-3,7-dicarboxylic acid] | ≤ 100 nM |  |
|  | O=C(O)C12CC3CC(C1)N(Cc1ccc4c(C(F)(F)F)c(O[C@H]5CC[C@@H](C(F)(F)F)CC5)ccc4c1)C(C3)C2 [Example 283, 9-(1R,3S,5S,7S)-2-((5-(trifluoromethyl)-6-((cis-4-(trifluoromethyl)cyclohexyl)oxy)naphthalen-2-yl)methyl)-2-azaadamantane-5-carboxylic acid] | ≤ 100 nM |  |
|  | NC1CC2CC(C(=O)O)CC(C1)N2Cc1ccc2c(C(F)(F)F)c(O[C@H]3CC[C@@H](C(F)(F)F)CC3)ccc2c1 (stereo partly drawn) [Example 284, 9-(1R,3R,5S)-7-amino-9-((5-(trifluoromethyl)-6-((cis-4-(trifluoromethyl)cyclohexyl)oxy)naphthalen-2-yl)methyl)-9-azabicyclo[3.3.1]nonane-3-carboxylic acid] | ≤ 250 nM |  |
|  | CCC1CCC(Oc2ccc3cc(C(CC)N4C5CCCC4CC(C(=O)O)C5)ccc3c2C(F)(F)F)CC1 [Example 297, 9-((R)-1-(6-(((1s,4S)-4-ethylcyclohexyl)oxy)-5-(trifluoromethyl)naphthalen-2-yl)propyl)-9-azabicyclo[3.3.1]nonane-3-carboxylic acid] | ≤ 250 nM |  |

| SMILES | IC50 [1] | IC50 [3] | further results |
| --- | --- | --- | --- |
| CC(C)(C)[C@H]1CC[C@H](Oc2ccc3cc(CN4CC5CC(C4)C5C(=O)O)ccc3c2)CC1 (stereo partly drawn) [Example 74, 3-((6-((trans-4-(tert-butyl)cyclohexyl)oxy)naphthalen-2-yl)methyl)-3-azabicyclo[3.1.1]heptane-6-carboxylic acid] | ≤ 100 nM |  |  |
